According to BigSolDB 2.1:

Settings: in water

CCCCCCn1cc[n+](C)c1.F[P-](F)(F)(F)(F)F
Settings	solubility (mole fraction)
286.45 K	0.000326
296.65 K	0.00041
302.65 K	0.000448
307.85 K	0.000503
312.95 K	0.000545
319.35 K	0.00066
326.35 K	0.000734
331.75 K	0.000852
336.15 K	0.000919
340.25 K	0.00105
345.85 K	0.00113
350.75 K	0.00128
355.25 K	0.00144
359.95 K	0.00157
363.05 K	0.0018

CCCCn1cc[n+](C)c1.F[P-](F)(F)(F)(F)F
Settings	solubility (mole fraction)
278.75 K	0.0009
283.55 K	0.00102
289.55 K	0.00108
295.95 K	0.00126
302.25 K	0.00146
310.35 K	0.00171
314.95 K	0.00195
319.65 K	0.00218
326.65 K	0.00244
333.25 K	0.0029
338.35 K	0.00339
344.35 K	0.00371
350.85 K	0.00444
357.35 K	0.00532
362.15 K	0.00628

CCCCCCCCn1cc[n+](C)c1.F[P-](F)(F)(F)(F)F
Settings	solubility (mole fraction)
285.85 K	9.4e-05
293.95 K	0.000116
299.05 K	0.000128
307.35 K	0.000154
311.35 K	0.000169
318.15 K	0.000197
324.75 K	0.000216
328.15 K	0.000239
331.15 K	0.000257
338.85 K	0.000304
343.35 K	0.000345
348.45 K	0.000383
353.75 K	0.000445
358.55 K	0.000505
364.55 K	0.000574
